For 20 molecules, IC50 and Kb results are on record in patent publication US20190152992A1, “BENZODIOXANE DERIVATIVES AND THEIR PHARMACEUTICAL USE” (Orion Corporation, priority 2016, published 2019).

For one assay, the target named is T1, human alpha2A receptors (Homo sapiens, UniProt P08913).
T1 sequence (P08913 1-465): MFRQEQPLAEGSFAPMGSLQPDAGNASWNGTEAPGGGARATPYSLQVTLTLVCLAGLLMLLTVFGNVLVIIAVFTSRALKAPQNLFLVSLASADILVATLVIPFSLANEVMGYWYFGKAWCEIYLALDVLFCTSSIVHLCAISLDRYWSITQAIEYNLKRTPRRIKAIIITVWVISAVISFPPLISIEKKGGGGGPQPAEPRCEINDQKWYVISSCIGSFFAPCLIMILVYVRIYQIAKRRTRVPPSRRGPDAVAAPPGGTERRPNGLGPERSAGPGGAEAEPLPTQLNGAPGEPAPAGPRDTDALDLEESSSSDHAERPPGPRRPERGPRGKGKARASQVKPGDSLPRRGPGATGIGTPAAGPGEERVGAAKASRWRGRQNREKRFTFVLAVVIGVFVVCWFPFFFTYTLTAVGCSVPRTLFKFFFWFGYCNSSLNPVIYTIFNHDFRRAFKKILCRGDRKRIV
Put plainly: cell-based.

A further assay addresses T2, human alpha2C receptors (Homo sapiens, UniProt P18825).
T2 sequence (P18825 1-462): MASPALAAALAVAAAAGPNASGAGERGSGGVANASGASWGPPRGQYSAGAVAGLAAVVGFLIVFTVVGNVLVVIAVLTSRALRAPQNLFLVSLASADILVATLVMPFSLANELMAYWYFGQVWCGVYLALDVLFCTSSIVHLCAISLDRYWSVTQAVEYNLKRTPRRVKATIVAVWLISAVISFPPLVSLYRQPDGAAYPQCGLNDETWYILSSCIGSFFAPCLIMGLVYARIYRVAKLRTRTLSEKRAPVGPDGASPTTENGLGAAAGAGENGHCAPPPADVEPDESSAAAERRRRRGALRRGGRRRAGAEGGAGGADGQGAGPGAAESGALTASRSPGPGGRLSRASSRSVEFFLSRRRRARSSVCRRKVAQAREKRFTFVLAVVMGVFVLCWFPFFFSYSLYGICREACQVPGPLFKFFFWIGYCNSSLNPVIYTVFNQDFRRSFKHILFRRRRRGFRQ
Put plainly: Determination of alpha2C antagonistic activity in vitro (FLIPR calcium assay). The conditions noted are these: for Kb: Alpha 2C Adrenaline Kb, Kb calculated from IC50 with the Cheng-Prusoff equation, adrenaline as agonist, CHO cells, human alpha2C.

SMILES strings stand for the structures. Counter-ions that a name gives are not always drawn.

Description for human alpha2A receptors: Experiment 1: Determination of alpha2A and alpha2C Antagonistic Activity In Vitro
The growth medium was removed and the cells were incubated with the test compounds and the FLIPR Calcium 6 Assay reagent (Molecular Devices, CA, USA) for 2 h at 37° C. in dark. The test compounds (concentrations in cells 100 pM-10 μM) were dissolved in Probenecid-Ringer consisting of 150 mM NaCl, 3 mM KCl, 1.2 mM MgCl2, 1 mM CaCl2, 5 mM glucose, 20 mM HEPES and 2.5 mM probenecid (pH 7.4 adjusted with 1.0 M NaOH). […] All experiments were performed at 37° C. For agonism measurements the test compounds dissolved in Probenecid-Ringer were applied by FLIPR Tetra at 15 s time point. In order to determine antagonism, the cells were stimulated either with 100 nM adrenaline or noradrenaline and the test compounds were added to the cells 2 h before the experiment with the FLIPR Calcium 6 Assay reagent. […] Typically, there were four replicates at each concentration and six different dose levels. […] The minimum fluorescence value subtracted from the maximum value for each well was used in the calculations. ScreenWorks version 4.0 software was used for analyzing the results. Fitting of the antagonist dose-response results was performed with the free Hill equation and the IC50 values were fitted with IDBS XE software using model 200: y=(A+(B/(1+((x/C)̂D)))), where A is the curve maximum, B the curve minimum and C equals the EC50 value. D is slope factor (Hill). Kb was calculated with the Cheng-Prusoff equation Kb=A/((B/C)+1), where A is the IC50 of antagonist, B the concentration of agonist and C the EC50 of the agonist.

What is called IC50 is the concentration needed to halve the response being measured. At human alpha2A receptors, `O=C1c2cncnc2CN1[C@H]1CCCN(C[C@H]2COc3ccccc3O2)C1` [example 23, 6-((S)-1-(((S)-2,3-Dihydrobenzo[b][1,4]dioxin-2-yl)methyl)piperidin-3-yl)-6,7-dihydro-5H-pyrrolo[3,4-d]pyrimidin-5-one] registered an IC50 of more than 10000 nM and a Kb of more than 449 nM. In addition, at human alpha2C receptors, the IC50 was 18 nM and the Kb is 1.81 nM.
In the same order, the values of `Cn1ncc2c1C(=O)N([C@H]1CCCN(C[C@H]3COc4ccccc4O3)C1)C2` [example 24, 5-((S)-1-(((S)-2,3-Dihydrobenzo[b][1,4]dioxin-2-yl)methyl)piperidin-3-yl)-1-methyl-4,5-dihydropyrrolo[3,4-c]pyrazol-6(1H)-one] are more than 10000 nM, more than 449 nM, 89.7 nM and 9.03 nM.
On human alpha2A receptors, `O=S1(=O)Cc2ccccc2N1[C@H]1CCCN(C[C@H]2COc3ccccc3O2)C1` [example 25, 1-((S)-1-(((S)-2,3-Dihydrobenzo[b][1,4]dioxin-2-yl)methyl)piperidin-3-yl)-1,3-dihydrobenzo[c]isothiazole 2,2-dioxide] had an IC50 of 535 nM and a Kb of 24 nM. For the same molecule, at human alpha2C receptors, the half-maximal inhibitory concentration (IC50) is 19.4 nM and the Kb is 1.95 nM.
At human alpha2A receptors, `O=C1Cc2ccccc2N1[C@H]1CCCN(C[C@H]2COc3ccccc3O2)C1` [example 26, 1-((S)-1-(((S)-2,3-Dihydrobenzo[b][1,4]dioxin-2-yl)methyl)piperidin-3-yl)indolin-2-one] registered a concentration for half-maximal inhibition (IC50) of more than 10000 nM and a Kb of more than 449 nM. On human alpha2C receptors, the IC50 was found to be 27.9 nM and the Kb was 2.81 nM.
For `Cc1nc2c(F)cc(F)cc2n1[C@H]1CCCN(C[C@H]2COc3ccccc3O2)C1` [example 27, 1-((S)-1-(((S)-2,3-Dihydrobenzo[b][1,4]dioxin-2-yl)methyl)piperidin-3-yl)-4,6-difluoro-2-methyl-1H-benzo[d]imidazole], on human alpha2A receptors, the IC50 is more than 10000 nM and the Kb is more than 449 nM. On human alpha2C receptors, the IC50 was 20.8 nM and the Kb is 2.09 nM.
In the same order, the values of `Cc1nc2cc(F)c(F)cc2n1[C@H]1CCCN(C[C@H]2COc3ccccc3O2)C1` [example 28, 1-((S)-1-(((S)-2,3-Dihydrobenzo[b][1,4]dioxin-2-yl)methyl)piperidin-3-yl)-5,6-difluoro-2-methyl-1H-benzo[d]imidazole] are more than 10000 nM, more than 449 nM, 5.43 nM and 0.547 nM.
In the same order, the values of `CC1CCC(=O)N1[C@H]1CCCN(C[C@H]2COc3ccccc3O2)C1` (stereo partly drawn) [example 30, 1-((S)-1-(((S)-2,3-Dihydrobenzo[b][1,4]dioxin-2-yl)methyl)piperidin-3-yl)-5-methylpyrrolidin-2-one] are more than 1000 nM, more than 45 nM, 1.11 nM and 0.11 nM.
For `O=C1C(c2ccccc2)CCN1[C@H]1CCCN(C[C@H]2COc3ccccc3O2)C1` (stereo partly drawn) [example 31, 1-((S)-1-(((S)-2,3-Dihydrobenzo[b][1,4]dioxin-2-yl)methyl)piperidin-3-yl)-3-phenylpyrrolidin-2-one], in that order: more than 10000 nM, more than 449 nM, more than 10000 nM and more than 1010 nM.
Take `O=C1CC(c2ccccc2)CN1[C@H]1CCCN(C[C@H]2COc3ccccc3O2)C1` (stereo partly drawn) [example 32, 1-((S)-1-(((S)-2,3-Dihydrobenzo[b][1,4]dioxin-2-yl)methyl)piperidin-3-yl)-4-phenylpyrrolidin-2-one]: on human alpha2A receptors, the IC50 amounted to 5210 nM and the Kb amounted to 234 nM. At human alpha2C receptors, the half-maximal inhibitory concentration (IC50) is less than 0.01 nM and the Kb is less than 0.001 nM.
For `O=C1C2C3C=CC(C3)C2C(=O)N1[C@H]1CCCN(C[C@H]2COc3ccccc3O2)C1` (stereo partly drawn) [example 34, 2-((S)-1-(((S)-2,3-Dihydrobenzo[b][1,4]dioxin-2-yl)methyl)piperidin-3-yl)-3a,4,7,7a-tetrahydro-1H-4,7-methanoisoindole-1,3(2H)-dione], in that order: 6860 nM, 308 nM, 0.02 nM and 0.002 nM.
Take `CC1(c2ccccc2)CC(=O)N([C@H]2CCCN(C[C@H]3COc4ccccc4O3)C2)C1=O` (stereo partly drawn) [example 35, 1-((S)-1-(((S)-2,3-Dihydrobenzo[b][1,4]dioxin-2-yl)methyl)piperidin-3-yl)-3-methyl-3-phenylpyrrolidine-2,5-dione]: on human alpha2A receptors, the half-inhibitory concentration (IC50) was 193 nM and the Kb is 9 nM. Further, on human alpha2C receptors, the IC50 was less than 0.01 nM.
As for `O=C1C2CC2(c2ccccc2)C(=O)N1[C@H]1CCCN(C[C@H]2COc3ccccc3O2)C1` (stereo partly drawn) [example 37, 3-((S)-1-(((S)-2,3-Dihydrobenzo[b][1,4]dioxin-2-yl)methyl)piperidin-3-yl)-1-phenyl-3-azabicyclo[3.1.0]hexane-2,4-dione], the IC50 against human alpha2A receptors is more than 10000 nM; at human alpha2C receptors, less than 0.01 nM. For the same molecule, the figures for the Kb on human alpha2A receptors and at human alpha2C receptors were more than 449 nM and less than 0.001 nM, respectively.
For `O=C1C(=O)N([C@H]2CCCN(C[C@H]3COc4ccccc4O3)C2)CC1c1ccccc1` (stereo partly drawn) [example 38, 1-((S)-1-(((S)-2,3-Dihydrobenzo[b][1,4]dioxin-2-yl)methyl)piperidin-3-yl)-4-phenylpyrrolidine-2,3-dione], in that order: more than 10000 nM, 1.54 nM, more than 449 nM and 0.153 nM.
In the same order, the values of `O=C1C=C(c2ccccc2)CN1[C@H]1CCCN(C[C@H]2COc3ccccc3O2)C1` [example 39, 1-((S)-1-(((S)-2,3-Dihydrobenzo[b][1,4]dioxin-2-yl)methyl)piperidin-3-yl)-4-phenyl-1H-pyrrol-2(5H)-one] are more than 10000 nM, 1.79 nM, more than 449 nM and 0.181 nM.
On to `CC1=CC(=O)N([C@H]2CCCN(C[C@H]3COc4ccccc4O3)C2)C1` [example 40, 1-((S)-1-(((S)-2,3-Dihydrobenzo[b][1,4]dioxin-2-yl)methyl)piperidin-3-yl)-4-methyl-1H-pyrrol-2(5H)-one], for which, on human alpha2A receptors, the IC50 is more than 10000 nM and the Kb is more than 449 nM. On human alpha2C receptors, the IC50 is 2.32 nM and the Kb is 0.232 nM.
For `O=C1C=C(c2ccc(F)cc2)CN1[C@H]1CCCN(C[C@H]2COc3ccccc3O2)C1` [example 41, 1-((S)-1-(((S)-2,3-Dihydrobenzo[b][1,4]dioxin-2-yl)methyl)piperidin-3-yl)-4-(4-fluorophenyl)-1H-pyrrol-2(5H)-one], in that order: more than 10000 nM, more than 449 nM, 11.8 nM and 1.19 nM.
For `CC1=C(c2ccccc2)C(=O)N([C@H]2CCCN(C[C@H]3COc4ccccc4O3)C2)C1` [example 42, 1-((S)-1-(((S)-2,3-Dihydrobenzo[b][1,4]dioxin-2-yl)methyl)piperidin-3-yl)-4-methyl-3-phenyl-1H-pyrrol-2(5H)-one], in that order: more than 10000 nM, more than 449 nM, 331 nM and 33.3 nM.
For `COc1ccccc1C1=CC(=O)N([C@H]2CCCN(C[C@H]3COc4ccccc4O3)C2)C1` [example 43, 1-((S)-1-(((S)-2,3-Dihydrobenzo[b][1,4]dioxin-2-yl)methyl)piperidin-3-yl)-4-(2-methoxyphenyl)-1H-pyrrol-2(5H)-one formate], in that order: more than 10000 nM, more than 449 nM, less than 0.01 nM and less than 0.001 nM.
`O=C1N(c2ccccc2)CCN1[C@H]1CCCN(C[C@H]2COc3ccccc3O2)C1` [example 48, 1-((S)-1-(((S)-2,3-Dihydrobenzo[b][1,4]dioxin-2-yl)methyl)piperidin-3-yl)-3-phenylimidazolidin-2-one]: the IC50 was more than 10000 nM on human alpha2A receptors and 29.9 nM on human alpha2C receptors. In addition, the results for the Kb at human alpha2A receptors and on human alpha2C receptors were more than 449 nM and 3.01 nM, respectively.
For `O=C1N(Cc2ccccc2)CCN1[C@H]1CCCN(C[C@H]2COc3ccccc3O2)C1` [example 50, 1-Benzyl-3-((S)-1-(((S)-2,3-dihydrobenzo[b][1,4]dioxin-2-yl)methyl)piperidin-3-yl)imidazolidin-2-one], at human alpha2A receptors, half-maximal inhibition (IC50) required 1020 nM and the Kb was 46 nM. Further, on human alpha2C receptors, the IC50 was less than 0.1 nM and the Kb was less than 0.01 nM.
